Experimental data: patent US20250205226A1, “USE OF N-(3-(4-(3-(DIISOBUTYLAMINO)PROPYL)PIPERAZIN-1-YL)PROPYL)-1H-BENZO[D]IMIDAZOL-2-AMINE SALTS AND SOLVATES THEREOF FOR THE TREATMENT OF SENSORY NEURON DISEASES” (ALZPROTECT, priority 2022, published 2025)
Read-outs that look alike come from different tables or passages of the source.

Tested on: primary culture of rat sensory neurons and Schwann cells
Assay type: cell-based
Conditions: for Effect on SN neurite network after cisplatin injury / Effect on SN survival as compared to the cisplatin condition: 3 nM to 100 nM, with cisplatin 10 μg/mL injury; for Survival of SNs (number of MAP-2 positive SNs), mean survival / Total neurite network (MAP-2), mean length: percentage of control, 24 h
Procedure: Primary sensory neurons (SN) and Schwann cells (SC) were cultured as previously described in Cancer Chem. Pharmacol. 2008 November;62 (6): 995-1007. Briefly, pregnant female rats of 15 days gestation (Rats Wistar; Janvier Labs France) were killed using a deep anesthesia with CO2 chamber and a cervical dislocation. Then, fetuses were collected and immediately placed in ice-cold L15 Leibovitz medium with a 2% penicillin (10,000 U/mL) and streptomycin (10 mg/mL) solution (PS) and 1% bovine serum albumin (BSA). DRG from spinal cord were treated for 20min at 37° C. with a trypsin-EDTA solution at a final concentration of 0.05% trypsin and 0.02% EDTA. The dissociation was stopped by addition of Dulbecco's modified Eagle's medium (DMEM) with 4.5 g/L of glucose, containing DNAse I grade II (final concentration 0.5 mg/mL) and 10% fetal calf serum (FCS). Cells were mechanically dissociated through the tip of a 10 mL pipette. Cells were then centrifuged at 515× g for 10 min at 4° C. DMEM F12 with a 1% solution of N2 supplement, 2 mmol/L of L-glutamine, 2% of PS solution, NGF (5 ng/ml) and NT3 (5 ng/ml). Cells were seeded at a density of 15,000 per well in 96-well plates pre-coated with poly-L-lysine and cultured at 37° C. in an air (95%)-CO2 (5%) incubator. […] Cells were washed twice in PBS. Cell membranes were permeabilized and non-specific sites were blocked with a solution of PBS containing 0.1% of saponin and 1% FCS for 15 min at room temperature. Then, cells were incubated for 2 h with a mouse monoclonal antibody anti-microtubule associated protein 2 (MAP-2) at dilution of 1/400 in PBS containing 1% fetal calf serum and 0.1% of saponin. This antibody binds specifically MAP-2 present in cell bodies and neurites of all SNs. […] Nuclei of neurons were labeled by a fluorescent marker (Hoechst solution). For each condition, 30 pictures (representative of 90% of the well area) per well were automatically taken using ImageXpress (Molecular Devices) with 20× magnification. All images were taken under the same conditions (exposition time, gain and laser intensity). Analysis of different endpoints was automatically performed using Custom Module Editor (Molecular Devices). The endpoints were: • Survival of SNs (number of MAP-2 positive SNs) • Total neurite network (MAP-2): total length of neurites of SNs (expressed in μm) All values are expressed as mean +/−SEM. Statistical analysis was performed by one-way ANOVA, followed by PLSD Fisher test.

Molecule	Effect on SN neurite network after cisplatin injury	Effect on SN survival as compared to the cisplatin condition	Survival of SNs (number of MAP-2 positive SNs), mean survival (30 nM (maximal effect) with cisplatin 10 μg/mL injury, FIG. 7A) [%]	Total neurite network (MAP-2), mean length (30 nM (maximal effect) with cisplatin 10 μg/mL injury, FIG. 7B) [%]	Survival of SNs (number of MAP-2 positive SNs), mean survival (10 nM (maximal effect) with cisplatin 10 μg/mL injury, FIG. 8A) [%]	Total neurite network (MAP-2), mean length (10 nM (maximal effect) with cisplatin 10 μg/mL injury, FIG. 8B) [%]
CC(C)CN(CCCN1CCN(CCCNc2nc3ccccc3[nH]2)CC1)CC(C)C.O=S(=O)(O)O.O=S(=O)(O)O [N-(3-(4-(3-(diisobutylamino)propyl)piperazin-1-yl)propyl)-1H-benzo[d]imidazol-2-amine di-sulphate]	able to improve the neurite network after cisplatin injury	positive and significant effect on survival	80	83	–	–
N-(3-(4-(3-(diisobutylamino)propyl)piperazin-1-yl)propyl)-^1H-benzo[d]imidazol-2-amine sesqui-succinate salt [sesqui-succinate salt Form 1]	able to protect the neurite network from cisplatin damage	positive and significant effect on survival	–	–	~77	~80
